According to PubChem BioAssay (NCI):
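GI50 = concentration required for 50% inhibition of growth. TGI: total growth inhibition.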

Tests used:
Assay in all cases: growth of human tumour cells (NCI), 384-well format
[1] = system: CAKI-1 renal
[2] = system: OVCAR-4 ovarian
[3] = system: RXF 393 renal
[4] = system: KM12 colon
[5] = system: A549 NSCLC
[6] = system: 786-0 renal
[7] = system: HOP-62 NSCLC
[8] = system: DU-145 prostate
[9] = system: K-562 leukemia
[10] = system: BT-549 breast
[11] = system: SNB-19 CNS
[12] = system: T-47D breast
[13] = system: MCF7 breast
[14] = system: MDA-MB-231 breast
[15] = system: SR leukemia
[16] = system: SF-295 CNS
[17] = system: HCC-2998 colon
[18] = system: SW-620 colon
[19] = system: NCI-H460 NSCLC
[20] = system: SK-MEL-5 melanoma
[21] = system: U251 glioblastoma
[22] = system: LOX IMVI melanoma
[23] = system: SK-MEL-28 melanoma
[24] = system: SF-539 CNS
[25] = system: SN12C renal
[26] = system: RPMI-8226 leukemia
[27] = system: SK-MEL-2 melanoma
[28] = system: OVCAR-5 ovarian
[29] = system: HOP-92 NSCLC
[30] = system: SNB-75 CNS
[31] = system: IGROV1 ovarian
[32] = system: MDA-MB-435 melanoma
[33] = system: TK-10 renal
[34] = system: UACC-62 melanoma
[35] = system: M14 melanoma
[36] = system: EKVX NSCLC
[37] = system: OVCAR-8 ovarian
[38] = system: UACC-257 melanoma
[39] = system: OVCAR-3 ovarian
[40] = system: HS 578T breast
[41] = system: MALME-3M melanoma
[42] = system: ACHN renal
[43] = system: SK-OV-3 ovarian
[44] = system: NCI-H23 lung
[45] = system: NCI-H322M lung
[46] = system: MOLT-4 leukemia
[47] = system: NCI/ADR-RES ovarian
[48] = system: PC-3 prostate
[49] = system: NCI-H522 lung
[50] = system: HCT-116 colon
[51] = system: COLO 205 colon
[52] = system: NCI-H226 lung
[53] = system: HL-60(TB) leukemia
[54] = system: CCRF-CEM leukemia
[55] = system: A498 renal
[56] = system: MDA-MB-468 breast
[57] = system: HT29 colon
[58] = system: SF-268 CNS
[59] = system: HCT-15 colon
[60] = system: UO-31 renal

Compound: COc1ccc(S(=O)(=O)N2CCNCC2)cc1OC
- GI50 [1]: > 100000 nM
- TGI [1]: > 100000 nM
- GI50 [2]: > 100000 nM
- TGI [2]: > 100000 nM
- GI50 [3]: > 100000 nM
- TGI [3]: > 100000 nM
- GI50 [4]: > 100000 nM
- TGI [4]: > 100000 nM
- GI50 [5]: > 100000 nM
- TGI [5]: > 100000 nM
- GI50 [6]: > 100000 nM
- TGI [6]: > 100000 nM
- GI50 [7]: > 100000 nM
- TGI [7]: > 100000 nM
- GI50 [8]: > 100000 nM
- TGI [8]: > 100000 nM
- GI50 [9]: > 100000 nM
- TGI [9]: > 100000 nM
- GI50 [10]: > 100000 nM
- TGI [10]: > 100000 nM
- GI50 [11]: > 100000 nM
- TGI [11]: > 100000 nM
- GI50 [12]: > 100000 nM
- TGI [12]: > 100000 nM
- GI50 [13]: > 100000 nM
- TGI [13]: > 100000 nM
- GI50 [14]: > 100000 nM
- TGI [14]: > 100000 nM
- GI50 [15]: > 100000 nM
- TGI [15]: > 100000 nM
- GI50 [16]: > 100000 nM
- TGI [16]: > 100000 nM
- GI50 [17]: > 100000 nM
- TGI [17]: > 100000 nM
- GI50 [18]: > 100000 nM
- TGI [18]: > 100000 nM
- GI50 [19]: > 100000 nM
- TGI [19]: > 100000 nM
- GI50 [20]: > 100000 nM
- TGI [20]: > 100000 nM
- GI50 [21]: > 100000 nM
- TGI [21]: > 100000 nM
- GI50 [22]: > 100000 nM
- TGI [22]: > 100000 nM
- GI50 [23]: > 100000 nM
- TGI [23]: > 100000 nM
- GI50 [24]: > 100000 nM
- TGI [24]: > 100000 nM
- GI50 [25]: > 100000 nM
- TGI [25]: > 100000 nM
- GI50 [26]: > 100000 nM
- TGI [26]: > 100000 nM
- GI50 [27]: > 100000 nM
- TGI [27]: > 100000 nM
- GI50 [28]: > 100000 nM
- TGI [28]: > 100000 nM
- GI50 [29]: > 100000 nM
- TGI [29]: > 100000 nM
- GI50 [30]: > 100000 nM
- TGI [30]: > 100000 nM
- GI50 [31]: > 100000 nM
- TGI [31]: > 100000 nM
- GI50 [32]: > 100000 nM
- TGI [32]: > 100000 nM
- GI50 [33]: > 100000 nM
- TGI [33]: > 100000 nM
- GI50 [34]: > 100000 nM
- TGI [34]: > 100000 nM
- GI50 [35]: > 100000 nM
- TGI [35]: > 100000 nM
- GI50 [36]: > 100000 nM
- TGI [36]: > 100000 nM
- GI50 [37]: > 100000 nM
- TGI [37]: > 100000 nM
- GI50 [38]: > 100000 nM
- TGI [38]: > 100000 nM
- GI50 [39]: > 100000 nM
- TGI [39]: > 100000 nM
- GI50 [40]: > 100000 nM
- TGI [40]: > 100000 nM
- GI50 [41]: > 100000 nM
- TGI [41]: > 100000 nM
- GI50 [42]: > 100000 nM
- TGI [42]: > 100000 nM
- GI50 [43]: > 100000 nM
- TGI [43]: > 100000 nM
- GI50 [44]: > 100000 nM
- TGI [44]: > 100000 nM
- GI50 [45]: > 100000 nM
- TGI [45]: > 100000 nM
- GI50 [46]: > 100000 nM
- TGI [46]: > 100000 nM
- GI50 [47]: > 100000 nM
- TGI [47]: > 100000 nM
- GI50 [48]: > 100000 nM
- TGI [48]: > 100000 nM
- GI50 [49]: > 100000 nM
- TGI [49]: > 100000 nM
- GI50 [50]: > 100000 nM
- TGI [50]: > 100000 nM
- GI50 [51]: > 100000 nM
- TGI [51]: > 100000 nM
- GI50 [52]: > 100000 nM
- TGI [52]: > 100000 nM
- GI50 [53]: > 100000 nM
- TGI [53]: > 100000 nM
- GI50 [54]: > 100000 nM
- TGI [54]: > 100000 nM
- GI50 [55]: > 100000 nM
- TGI [55]: > 100000 nM
- GI50 [56]: > 100000 nM
- TGI [56]: > 100000 nM
- GI50 [57]: > 100000 nM
- TGI [57]: > 100000 nM
- GI50 [58]: > 100000 nM
- TGI [58]: > 100000 nM
- GI50 [59]: > 100000 nM
- TGI [59]: > 100000 nM

Compound: COCCOCCOCCOCCOC(=O)OC[n+]1ccc(NC(=NCCCCCCOc2ccc(Cl)cc2)NC#N)cc1
- GI50 [1]: < 10 nM
- TGI [1]: < 10 nM
- GI50 [2]: < 10 nM
- TGI [2]: < 10 nM
- GI50 [3]: < 10 nM
- TGI [3]: < 10 nM
- GI50 [4]: < 10 nM
- TGI [4]: < 10 nM
- GI50 [5]: < 10 nM
- TGI [5]: 19.4 nM
- GI50 [6]: < 10 nM
- TGI [6]: < 10 nM
- GI50 [7]: < 10 nM
- TGI [7]: < 10 nM
- GI50 [8]: < 10 nM
- TGI [8]: 18.8 nM
- GI50 [9]: < 10 nM
- TGI [9]: < 10 nM
- GI50 [10]: < 10 nM
- TGI [10]: < 10 nM
- GI50 [11]: < 10 nM
- TGI [11]: < 10 nM
- GI50 [12]: < 10 nM
- TGI [12]: < 10 nM
- GI50 [13]: < 10 nM
- TGI [13]: < 10 nM
- GI50 [14]: 15.2 nM
- TGI [14]: 30.1 nM
- GI50 [15]: 18.8 nM
- TGI [15]: 33.3 nM
- GI50 [16]: < 10 nM
- TGI [16]: < 10 nM
- GI50 [17]: < 10 nM
- TGI [17]: < 10 nM
- GI50 [18]: < 10 nM
- TGI [18]: < 10 nM
- GI50 [19]: < 10 nM
- TGI [19]: < 10 nM
- GI50 [20]: < 10 nM
- TGI [20]: < 10 nM
- GI50 [21]: < 10 nM
- TGI [21]: < 10 nM
- GI50 [22]: < 10 nM
- TGI [22]: < 10 nM
- GI50 [23]: < 10 nM
- TGI [23]: < 10 nM
- GI50 [24]: < 10 nM
- TGI [24]: < 10 nM
- GI50 [25]: < 10 nM
- TGI [25]: < 10 nM
- GI50 [26]: < 10 nM
- TGI [26]: < 10 nM
- GI50 [27]: < 10 nM
- TGI [27]: < 10 nM
- GI50 [28]: < 10 nM
- TGI [28]: < 10 nM
- GI50 [29]: 21.6 nM
- TGI [29]: 41.5 nM
- GI50 [31]: < 10 nM
- TGI [31]: < 10 nM
- GI50 [32]: < 10 nM
- TGI [32]: < 10 nM
- GI50 [33]: < 10 nM
- TGI [33]: < 10 nM
- GI50 [34]: < 10 nM
- TGI [34]: < 10 nM
- GI50 [35]: < 10 nM
- TGI [35]: 18.9 nM
- GI50 [37]: < 10 nM
- TGI [37]: < 10 nM
- GI50 [38]: < 10 nM
- TGI [38]: 15.8 nM
- GI50 [39]: < 10 nM
- TGI [39]: < 10 nM
- GI50 [41]: 25.3 nM
- TGI [41]: 46.4 nM
- GI50 [42]: < 10 nM
- TGI [42]: < 10 nM
- GI50 [43]: < 10 nM
- TGI [43]: < 10 nM
- GI50 [44]: < 10 nM
- TGI [44]: < 10 nM
- GI50 [45]: < 10 nM
- TGI [45]: < 10 nM
- GI50 [46]: < 10 nM
- TGI [46]: < 10 nM
- GI50 [47]: < 10 nM
- TGI [47]: < 10 nM
- GI50 [48]: < 10 nM
- TGI [48]: < 10 nM
- GI50 [49]: < 10 nM
- TGI [49]: < 10 nM
- GI50 [50]: < 10 nM
- TGI [50]: < 10 nM
- GI50 [51]: < 10 nM
- TGI [51]: < 10 nM
- GI50 [52]: 77.9 nM
- TGI [52]: 2960 nM
- GI50 [53]: < 10 nM
- TGI [53]: < 10 nM
- GI50 [54]: < 10 nM
- TGI [54]: < 10 nM
- GI50 [55]: 25.3 nM
- TGI [55]: 58.6 nM
- GI50 [56]: < 10 nM
- TGI [56]: < 10 nM
- GI50 [57]: < 10 nM
- TGI [57]: < 10 nM
- GI50 [60]: < 10 nM
- TGI [60]: < 10 nM
- GI50 [58]: < 10 nM
- TGI [58]: < 10 nM
- GI50 [59]: < 10 nM
- TGI [59]: < 10 nM
